Results taken from PubChem BioAssay (NCI).
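Exposure lasted 48 hours, with cells grown in 96-well plates and compounds tested at five concentrations. TGI: concentration producing complete growth inhibition.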

What was measured:
Assay in all cases: growth of human tumour cells (NCI), 48 h
[1] = tested on: A498 renal
[2] = tested on: CAKI-1 renal
[3] = tested on: DMS 114 small cell lung
[4] = tested on: EKVX NSCLC
[5] = tested on: HL-60(TB) leukemia
[6] = tested on: LOX IMVI melanoma
[7] = tested on: MCF7 breast
[8] = tested on: OVCAR-4 ovarian
[9] = tested on: OVCAR-5 ovarian
[10] = tested on: SN12K1 renal
[11] = tested on: SNB-75 CNS
[12] = tested on: HCC-2998 colon
[13] = tested on: HS 578T breast
[14] = tested on: MDA-N
[15] = tested on: PC-3 prostate
[16] = tested on: SR leukemia
[17] = tested on: T-47D breast
[18] = tested on: BT-549 breast
[19] = tested on: M14 melanoma
[20] = tested on: MALME-3M melanoma

Compound	TGI [1] [µM]	TGI [2] [µM]	TGI [3] [µM]	TGI [4] [µM]	TGI [5] [µM]	TGI [6] [µM]	TGI [7] [µM]	TGI [8] [µM]	TGI [9] [µM]	TGI [10] [µM]	TGI [11] [µM]	TGI [12] [µM]	TGI [13] [µM]	TGI [14] [µM]	TGI [15] [µM]	TGI [16] [µM]	TGI [17] [µM]	TGI [18] [µM]	TGI [19] [µM]	TGI [20] [µM]
N/C(=N\N=C\c1ccc2c(c1)OCCO2)NO	> 100	> 100	> 77.6	> 100	> 63.2	> 72.7	> 82.4	> 100	> 40.8	> 57.7	> 100	–	–	–	–	–	–	–	–	–
Cc1ccc(S(=O)(=O)N2CCCSCC2)cc1	> 100	–	–	–	–	> 100	> 100	> 100	–	–	> 100	> 100	> 100	> 100	> 100	> 100	> 100	–	–	–
CCCC(=O)Nc1cc(/C=C/C(=O)N2CC(CCl)c3c2cc(O)c2[nH]cc(C)c32)n(C)c1 (stereo unspecified)	–	< 2.5e-05	–	0.00293	–	0.0163	–	0.038	0.0286	–	< 2.5e-05	–	6.35e-05	–	–	> 0.14	0.00884	0.000504	–	–
CC(=O)C1CC[C@@H]2[C@H](CC[C@]3(C)[C@@H](O)CC[C@@H]23)[C@H]1C(=O)O (stereo partly specified)	> 100	> 100	–	> 100	> 100	–	> 100	> 100	> 100	–	–	> 100	> 100	–	> 100	> 100	–	> 100	> 100	> 100
O=C1c2ccccc2C(=O)N1CC(O)COc1cccc2ccccc12 (stereo unspecified)	> 100	> 100	–	> 100	> 100	> 100	> 100	–	> 100	–	–	> 100	–	> 100	> 100	> 100	–	–	> 100	> 100
Oc1ccc(-c2nc3ccc(Cl)cc3s2)cc1	35.2	36.5	–	31	57.7	45.9	22.6	–	33	–	–	–	–	37.6	37.5	51.1	–	33.3	> 100	36
COc1cc(C(O)(CC#N)c2cc3c(cc2Br)OCO3)cc(OC)c1OC (stereo unspecified)	–	75.8	–	> 100	–	> 100	> 100	> 100	> 100	–	> 100	66.1	–	> 100	> 100	–	> 100	> 100	50.5	–
CC1(C)OCC=CCO1	–	> 100	–	> 100	> 100	> 100	> 100	> 100	> 100	–	> 100	> 100	> 100	> 100	> 100	–	> 100	> 100	> 100	> 100
